Experimental data taken from ChEMBL document CHEMBL5360672, “Identification of Novel Dual-Target Estrogen Receptor α Degraders with Tubulin Inhibitory Activity for the Treatment of Endocrine-Resistant Breast Cancer” (J Med Chem, 2023).
pIC50: −log10 of the molar value. The source made the active and inactive calls. The rule behind the calls is not given here.

Legend:
[1] = Antiproliferative activity against human Tamoxifen-resistant LCC2 cells assessed as inhibition of cell proliferation incubated for 72 hrs by CCK8 assay; format: functional, cell-based
T47D [2] = experiment: Antiproliferative activity against human T47D cells harboring ERalpha D538G mutant assessed as inhibition of cell proliferation incubated for 72 hrs by CCK8 assay; format: functional, cell-based
T47D [3] = experiment: Antiproliferative activity against human T47D cells harboring ERalpha Y537S mutant assessed as inhibition of cell proliferation incubated for 72 hrs by CCK8 assay; format: functional, cell-based
MDA-MB-231 = experiment: Antiproliferative activity against ERalpha negative human MDA-MB-231 cells assessed as inhibition of cell proliferation incubated for 72 hrs by CCK8 assay; format: functional, cell-based; settings: MDA-MB-231, 72 h
MCF7 [4] = experiment: Antiproliferative activity against ERalpha positive human MCF7 cells assessed as inhibition of cell proliferation incubated for 72 hrs by CCK8 assay; format: functional, cell-based; settings: MCF7, 72 h
[5] = Cytotoxicity against human MCF-10A cells assessed as inhibition of cell proliferation incubated for 72 hrs by CCK8 assay; format: toxicity, cell-based
MCF7 [6] = experiment: Antitumor activity against human MCF7 cells xenografted in Balb/c nude mouse assessed as tumor growth inhibition at 2 mg/kg, ip administered every other day for 20 days relative to control; format: functional; settings: MCF7, 480 h, time 20 day, read-out: TGI
[7] = Antitumor activity against human Tamoxifen-resistant LCC2 cells xenografted in Balb/c nude mouse assessed as tumor growth inhibition at 2 mg/kg, ip administered every other day for 20 days relative to control; format: functional; settings: Tamoxifen-resistant LCC2 cell, 480 h, time 20 day, read-out: TGI
[8] = target: T1, Estrogen receptor (Homo sapiens) (UniProt P03372); experiment: Binding affinity to human ERalpha assessed as relative binding affinity incubated under vibration for 1 min followed by 2 hrs incubation under dark condition by fluorescence polarization assay relative to estradiol; settings: time 121.0 min
T1 sequence (whole entry): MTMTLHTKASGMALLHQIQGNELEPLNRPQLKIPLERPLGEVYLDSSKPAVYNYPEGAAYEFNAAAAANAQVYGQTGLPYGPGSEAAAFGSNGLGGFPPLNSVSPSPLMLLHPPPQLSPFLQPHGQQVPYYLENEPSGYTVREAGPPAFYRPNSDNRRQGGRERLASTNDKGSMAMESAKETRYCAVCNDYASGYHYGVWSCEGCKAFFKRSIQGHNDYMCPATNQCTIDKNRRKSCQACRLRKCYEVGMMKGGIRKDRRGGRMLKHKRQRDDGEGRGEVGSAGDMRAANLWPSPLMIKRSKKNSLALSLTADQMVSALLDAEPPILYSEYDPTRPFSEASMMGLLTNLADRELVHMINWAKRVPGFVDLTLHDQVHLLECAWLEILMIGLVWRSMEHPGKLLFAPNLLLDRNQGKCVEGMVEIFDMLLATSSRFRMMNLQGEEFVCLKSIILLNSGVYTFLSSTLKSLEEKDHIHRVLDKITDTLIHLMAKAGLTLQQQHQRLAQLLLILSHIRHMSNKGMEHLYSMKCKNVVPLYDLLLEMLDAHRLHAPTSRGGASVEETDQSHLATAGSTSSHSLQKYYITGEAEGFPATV

[9] = target: Estrogen receptor beta (Homo sapiens) (UniProt Q92731); experiment: Binding affinity to human ERbeta assessed as relative binding affinity incubated under vibration for 1 min followed by 2 hrs incubation under dark condition by fluorescence polarization assay relative to estradiol; settings: time 121.0 min
Chain of Estrogen receptor beta (Homo sapiens) (Q92731 whole entry): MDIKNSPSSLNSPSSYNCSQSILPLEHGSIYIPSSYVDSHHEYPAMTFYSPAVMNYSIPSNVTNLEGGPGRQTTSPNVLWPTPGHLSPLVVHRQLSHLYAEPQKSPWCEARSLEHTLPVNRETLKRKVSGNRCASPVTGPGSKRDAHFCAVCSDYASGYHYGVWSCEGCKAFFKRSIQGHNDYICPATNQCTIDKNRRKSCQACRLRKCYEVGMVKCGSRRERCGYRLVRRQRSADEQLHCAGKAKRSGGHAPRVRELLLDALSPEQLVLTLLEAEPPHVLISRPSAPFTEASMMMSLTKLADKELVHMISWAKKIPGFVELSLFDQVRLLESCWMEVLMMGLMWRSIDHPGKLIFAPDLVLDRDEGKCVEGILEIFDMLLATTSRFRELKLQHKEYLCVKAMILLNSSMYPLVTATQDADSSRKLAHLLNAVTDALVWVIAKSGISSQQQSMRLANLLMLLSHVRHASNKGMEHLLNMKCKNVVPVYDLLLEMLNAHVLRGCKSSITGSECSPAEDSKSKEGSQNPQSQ

Homo sapiens = organism: Homo sapiens; experiment: Selectivity ratio of relative binding affinity for human ERalpha to relative binding affinity to human ERbeta
T47D [10] = experiment: Antiproliferative activity against ERalpha positive human T47D cells assessed as inhibition of cell proliferation incubated for 72 hrs by CCK8 assay; format: functional, cell-based
[11] = Selectivity index, ratio of IC50 for cytotoxicity against human MCF-10A cells to IC50 for antiproliferative activity against human MCF7 cells; format: toxicity, cell-based; settings: MCF-10A cells and MCF7 cells, read-out: Ratio IC50
[12] = target: T1, Estrogen receptor (Homo sapiens); experiment: Induction of ERalpha degradation in human MCF7 cells at 5 uM incubated for 24 hrs by Western blot analysis; format: cell-based
[13] = target: T1, Estrogen receptor (Homo sapiens); experiment: Induction of ERalpha degradation in human MCF7 cells at 5 uM incubated for 24 hrs by Western blot analysis relative to SeCN-OBHSA derivatives; format: cell-based
[14] = target: T1, Estrogen receptor (Homo sapiens); experiment: Induction of ERalpha degradation in human MCF7 cells incubated for 6 to 24 hrs by Western blot analysis; format: cell-based; settings: dose 0.5-5 µM, time 6-24 hrs
[15] = target: T1, Estrogen receptor (Homo sapiens); experiment: Induction of ERalpha degradation in human MCF7 cells at 1 uM incubated for 6 to 24 hrs by Western blot analysis; format: cell-based; settings: time 6-24 hrs
[16] = target: T1, Estrogen receptor (Homo sapiens); experiment: Induction of ERalpha degradation in human MCF7 cells at 5 uM incubated for 24 hrs in the presence of MG-132 by Western blot analysis; format: cell-based
[17] = target: T1, Estrogen receptor (Homo sapiens); experiment: Induction of ERalpha degradation in human Tamoxifen-resistant LCC2 cells at 0.5 uM incubated for 6 to 24 hrs by Western blot analysis; format: cell-based; settings: Tamoxifen-resistant LCC2 cell, time 6-24 hrs
[18] = test system: Estrogen receptor (Homo sapiens), P03372 [D538G]; experiment: Induction of ERalpha degradation in human T47D cells harboring ERalpha D538G mutant at 0.5 to 5 uM incubated for 24 hrs by Western blot analysis; format: cell-based; settings: dose 0.5-5 µM
Chain of Estrogen receptor (Homo sapiens), P03372 [D538G] (P03372 whole entry D538G): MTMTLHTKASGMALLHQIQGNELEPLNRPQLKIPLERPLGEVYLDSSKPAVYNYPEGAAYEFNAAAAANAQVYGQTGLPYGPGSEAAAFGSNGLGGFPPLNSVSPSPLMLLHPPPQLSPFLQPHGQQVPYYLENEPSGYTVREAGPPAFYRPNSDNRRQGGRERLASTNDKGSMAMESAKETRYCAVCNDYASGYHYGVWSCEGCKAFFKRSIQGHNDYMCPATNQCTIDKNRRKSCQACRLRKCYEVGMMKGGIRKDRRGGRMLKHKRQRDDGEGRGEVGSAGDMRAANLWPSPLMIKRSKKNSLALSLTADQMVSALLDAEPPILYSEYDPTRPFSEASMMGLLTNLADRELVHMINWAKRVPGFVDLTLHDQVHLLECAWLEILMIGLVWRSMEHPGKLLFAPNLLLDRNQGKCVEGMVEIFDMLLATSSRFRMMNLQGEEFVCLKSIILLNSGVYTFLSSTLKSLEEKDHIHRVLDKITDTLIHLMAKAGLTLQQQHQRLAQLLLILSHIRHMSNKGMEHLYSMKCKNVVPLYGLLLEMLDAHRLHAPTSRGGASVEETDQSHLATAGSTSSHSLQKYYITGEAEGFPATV

[19] = test system: Estrogen receptor (Homo sapiens), P03372 [Y537S]; experiment: Induction of ERalpha degradation in human T47D cells harboring ERalpha Y537S mutant at 0.5 to 5 uM incubated for 24 hrs by Western blot analysis; format: cell-based; settings: dose 0.5-5 µM
Chain of Estrogen receptor (Homo sapiens), P03372 [Y537S] (P03372 whole entry Y537S): as the sequence (P03372 whole entry D538G) above, with Y537S, G538D counted along it

Tubulin (Homo sapiens) [20] = target: T2, Tubulin (Homo sapiens) (UniProt P68371+Q9H4B7+P0DPH7+P68366+Q13509+Q71U36+P04350+Q3ZCM7+P07437+P68363+Q9BQE3+Q6PEY2+Q13885+Q9BVA1+Q9BUF5); experiment: Inhibition of tubulin polymerization (unknown origin) at 30 uM incubated for 60 mins by microplate reader analysis; format: protein-complex assay
Tubulin (Homo sapiens) [21] = target: T2, Tubulin (Homo sapiens); experiment: Disruption of microtubule network in human MCF7 cells assessed as ruptured microtubule network at 2 uM incubated for 48 hrs by DAPI staining based confocal laser scanning microscopic analysis; format: cell-based
Tubulin (Homo sapiens) [22] = target: T2, Tubulin (Homo sapiens); experiment: Disruption of microtubule network in human MCF7 cells assessed as chaotic microtubule network at 2 uM incubated for 48 hrs by DAPI staining based confocal laser scanning microscopic analysis; format: cell-based
Tubulin (Homo sapiens) [23] = target: T2, Tubulin (Homo sapiens); experiment: Disruption of microtubule network in human LCC2 cells assessed as ruptured microtubule network at 4 uM incubated for 48 hrs by DAPI staining based confocal laser scanning microscopic analysis; format: cell-based
Tubulin (Homo sapiens) [24] = target: T2, Tubulin (Homo sapiens); experiment: Disruption of microtubule network in human LCC2 cells assessed as chaotic microtubule network at 4 uM incubated for 48 hrs by DAPI staining based confocal laser scanning microscopic analysis; format: cell-based
MCF7 [25] = experiment: Antitumor activity against human MCF7 cells xenografted in Balb/c nude mouse assessed as reduction in Ki67 positive cells at 2 to 4 mg/kg, ip administered every other day for 20 days by immunohistochemistry analysis; format: functional, organism-based; settings: dose 2-4 mg/kg, time 20.0 day
[26] = Toxicity in Balb/c nude mouse xenografted with human MCF7 cells assessed as body weight loss at 2 to 4 mg/kg, ip administered every other day for 20 days; format: organism-based; settings: in vivo, 480 h, dose 2-4 mg/kg, time 20 day
Mus musculus [27] = experiment: In vivo induction of ERalpha degradation in BALB/c nude mouse xenografted with human MCF7 cells assessed as decrease in ERalpha expression in tumor at 2 to 4 mg/kg, ip administered every other day for 20 days by Western blot analysis; format: functional, organism-based; settings: dose 2-4 mg/kg, time 20.0 day
[28] = Toxicity in Balb/c nude mouse xenografted with human MCF7 cells assessed as effect on heart morphology at 2 to 4 mg/kg, ip administered every other day for 20 days by H&E staining based analysis; format: organism-based; settings: in vivo, 480 h, dose 2-4 mg/kg, time 20 day
[29] = Toxicity in Balb/c nude mouse xenografted with human MCF7 cells assessed as effect on liver morphology at 2 to 4 mg/kg, ip administered every other day for 20 days by H&E staining based analysis; format: organism-based; settings: in vivo, 480 h, dose 2-4 mg/kg, time 20 day
[30] = Toxicity in Balb/c nude mouse xenografted with human MCF7 cells assessed as effect on kidney morphology at 2 to 4 mg/kg, ip administered every other day for 20 days by H&E staining based analysis; format: organism-based; settings: in vivo, 480 h, dose 2-4 mg/kg, time 20 day
MCF7 [31] = experiment: Antitumor activity against human MCF7 cells xenografted in Balb/c nude mouse assessed as tumor growth inhibition at 4 mg/kg, ip administered every other day for 20 days relative to control; format: functional; settings: MCF7, 480 h, time 20 day, read-out: TGI
Mus musculus [32] = experiment: In vivo induction of ERalpha degradation in BALB/c nude mouse xenografted with human tamoxifen-resistant LCC2 cells assessed as decrease in ERalpha expression in tumor at 2 mg/kg, ip administered every other day for 20 days by Western blot analysis; format: functional, organism-based; settings: time 20.0 day
[33] = test system: Tamoxifen-resistant LCC2 cell; experiment: Antitumor activity against human Tamoxifen-resistant LCC2 cells xenografted in Balb/c nude mouse assessed as reduction in Ki67 positive cells at 2 mg/kg, ip administered every other day for 20 days by immunohistochemistry analysis; format: functional, organism-based; settings: time 20.0 day

CC/C(=C(\c1ccc(O)cc1)c1ccc(OCCN(C)C)cc1)c1ccccc1 [AFIMOXIFENE]
pIC50 [1]: 4.68
pIC50 (T47D [2]): 5.04
pIC50 (T47D [3]): 5.05
pIC50 (MDA-MB-231): 4.76

C[C@]12CC[C@@H]3c4ccc(O)cc4C[C@@H](CCCCCCCCC[S+]([O-])CCCC(F)(F)C(F)(F)F)[C@H]3[C@@H]1CC[C@@H]2O (stereo partly specified) [FULVESTRANT]
pIC50 (MCF7 [4]): 6.92
IC50 at 72 h [5]: > 100 µM
pIC50 (MDA-MB-231): < 4.00
inhibition in vivo at 2 mg/kg (MCF7 [6]): 64.1%
inhibition in vivo at 2 mg/kg [7]: 45.8%

CCN(c1ccccc1F)S(=O)(=O)C1CC2OC1C(c1ccc(NC(=O)CCCCC[Se]C#N)cc1)=C2c1ccc(O)cc1 (stereo unspecified)
RBA [8]: 7.26%
RBA [9]: 0.46%
Selectivity ratio (Homo sapiens): 15.8
pIC50 (MCF7 [4]): 7.05
pIC50 (T47D [10]): 5.55
IC50 at 72 h [5]: 18.3 µM
selectivity ratio [11]: 203
pIC50 [1]: 5.55
pIC50 (T47D [2]): 5.52
pIC50 (T47D [3]): 5.84
pIC50 (MDA-MB-231): 5.43
Activity [12]: Active
Activity [13]: Active
Activity [14]: Dose-Dependent Effect
Activity [15]: Active
Activity [16]: inactive
Activity [17]: 100%
Activity [18]: Active
Activity [19]: Active
tubulin polymerization inhibition (active/not active) (Tubulin (Homo sapiens) [20]): Active
Activity (Tubulin (Homo sapiens) [21]): Active
Activity (Tubulin (Homo sapiens) [22]): Active
Activity (Tubulin (Homo sapiens) [23]): Active
Activity (Tubulin (Homo sapiens) [24]): Active
Activity (MCF7 [25]): Active
Activity [26]: Non-Toxic
Activity (Mus musculus [27]): Active
Activity [28]: Non-Toxic
Activity [29]: Non-Toxic
Activity [30]: Non-Toxic
inhibition in vivo at 2 mg/kg (MCF7 [6]): 69.1%
inhibition in vivo at 4 mg/kg (MCF7 [31]): 79.3%
inhibition in vivo at 2 mg/kg [7]: 56.9%
Activity (Mus musculus [32]): Active
Activity [33]: Active

O=S(=O)(Oc1ccccc1)C1CC2OC1C(c1ccc(O)cc1)=C2c1ccc(O)cc1 (stereo unspecified)
pIC50 (T47D [10]): < 4.51
IC50 at 72 h [5]: > 60 µM
selectivity ratio [11]: > 4.11
pIC50 [1]: 4.60
pIC50 (T47D [2]): < 4.51
Activity [12]: inactive
tubulin polymerization inhibition (active/not active) (Tubulin (Homo sapiens) [20]): inactive
